# Experimental data from BigSolDB 2.1.
smiles,measurement,setting,value
COc1ccccc1N1CCN(CC(O)COc2cccc3ccccc23)CC1 (centres undefined),solubility (mole fraction),"in acetone, 273.15 K",0.00318
same,solubility (mole fraction),"in acetone, 278.15 K",0.00399
same,solubility (mole fraction),"in acetone, 283.15 K",0.00481
same,solubility (mole fraction),"in acetone, 288.15 K",0.00579
same,solubility (mole fraction),"in acetone, 293.15 K",0.00676
same,solubility (mole fraction),"in acetone, 298.15 K",0.00782
same,solubility (mole fraction),"in acetone, 303.15 K",0.00894
same,solubility (mole fraction),"in acetone, 308.15 K",0.0102
same,solubility (mole fraction),"in acetone, 313.15 K",0.0118
same,solubility (mole fraction),"in acetonitrile, 273.15 K",0.00113
same,solubility (mole fraction),"in acetonitrile, 278.15 K",0.00132
same,solubility (mole fraction),"in acetonitrile, 283.15 K",0.00156
same,solubility (mole fraction),"in acetonitrile, 288.15 K",0.00182
same,solubility (mole fraction),"in acetonitrile, 293.15 K",0.00208
same,solubility (mole fraction),"in acetonitrile, 298.15 K",0.00244
same,solubility (mole fraction),"in acetonitrile, 303.15 K",0.0028
same,solubility (mole fraction),"in acetonitrile, 308.15 K",0.00321
same,solubility (mole fraction),"in acetonitrile, 313.15 K",0.00372
same,solubility (mole fraction),"in ethanol, 273.15 K",0.000817
same,solubility (mole fraction),"in ethanol, 278.15 K",0.000955
same,solubility (mole fraction),"in ethanol, 283.15 K",0.00112
same,solubility (mole fraction),"in ethanol, 288.15 K",0.00131
same,solubility (mole fraction),"in ethanol, 293.15 K",0.00152
same,solubility (mole fraction),"in ethanol, 298.15 K",0.00175
same,solubility (mole fraction),"in ethanol, 303.15 K",0.00198
same,solubility (mole fraction),"in ethanol, 308.15 K",0.00229
same,solubility (mole fraction),"in ethanol, 313.15 K",0.00266
same,solubility (mole fraction),"in ethyl acetate, 273.15 K",0.00438
same,solubility (mole fraction),"in ethyl acetate, 278.15 K",0.00503
same,solubility (mole fraction),"in ethyl acetate, 283.15 K",0.00585
same,solubility (mole fraction),"in ethyl acetate, 288.15 K",0.0067
same,solubility (mole fraction),"in ethyl acetate, 293.15 K",0.00768
same,solubility (mole fraction),"in ethyl acetate, 298.15 K",0.0087
same,solubility (mole fraction),"in ethyl acetate, 303.15 K",0.00998
same,solubility (mole fraction),"in ethyl acetate, 308.15 K",0.0112
same,solubility (mole fraction),"in ethyl acetate, 313.15 K",0.0126
same,solubility (mole fraction),"in methanol, 273.15 K",0.00056
same,solubility (mole fraction),"in methanol, 278.15 K",0.000636
same,solubility (mole fraction),"in methanol, 283.15 K",0.000719
same,solubility (mole fraction),"in methanol, 288.15 K",0.000822
same,solubility (mole fraction),"in methanol, 293.15 K",0.000922
same,solubility (mole fraction),"in methanol, 298.15 K",0.00104
same,solubility (mole fraction),"in methanol, 303.15 K",0.00118
same,solubility (mole fraction),"in methanol, 308.15 K",0.00133
same,solubility (mole fraction),"in methanol, 313.15 K",0.0015
same,solubility (mole fraction),"in toluene, 273.15 K",0.00534
same,solubility (mole fraction),"in toluene, 278.15 K",0.00633
same,solubility (mole fraction),"in toluene, 283.15 K",0.00727
same,solubility (mole fraction),"in toluene, 288.15 K",0.00847
same,solubility (mole fraction),"in toluene, 293.15 K",0.00978
same,solubility (mole fraction),"in toluene, 298.15 K",0.0113
same,solubility (mole fraction),"in toluene, 303.15 K",0.0129
same,solubility (mole fraction),"in toluene, 308.15 K",0.0149
same,solubility (mole fraction),"in toluene, 313.15 K",0.017
